# Tests used:
# TAS2R16 = TAS2R16 (Homo sapiens, UniProt Q9NYV7); conditions: PCT/US12/61400; cited from earlier work
# TAS2R1 = TAS2R1 (Homo sapiens, UniProt Q9NYW7); conditions: PCT/US12/61400; cited from earlier work
# TAS2R9 [1] = target: T1, TAS2R9 (Homo sapiens, UniProt Q9NYW1); conditions: PCT/US12/61400; cited from earlier work
# T1 construct: expressed in transfected cells
# T1 sequence (Q9NYW1 1-312): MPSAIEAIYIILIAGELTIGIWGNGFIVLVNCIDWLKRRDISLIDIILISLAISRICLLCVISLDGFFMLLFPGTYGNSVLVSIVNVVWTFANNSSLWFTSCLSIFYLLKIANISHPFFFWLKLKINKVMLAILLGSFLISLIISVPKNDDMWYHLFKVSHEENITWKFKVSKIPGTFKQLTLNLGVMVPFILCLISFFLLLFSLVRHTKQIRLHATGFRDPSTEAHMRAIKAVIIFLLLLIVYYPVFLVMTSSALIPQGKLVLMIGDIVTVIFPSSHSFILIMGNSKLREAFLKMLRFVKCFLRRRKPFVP
# TAS2R38 (PAV) = target: T2, TAS2R38 (PAV) (Homo sapiens, UniProt P59533, A49P/I296V); test: Calcium fluorescence functional assay, TAS2R38 (PAV) cell line with mouse Gα15; assay type: cell-based
# T2 construct: expressed in transfected cells
# T2 sequence (P59533 1-333 A49P/I296V): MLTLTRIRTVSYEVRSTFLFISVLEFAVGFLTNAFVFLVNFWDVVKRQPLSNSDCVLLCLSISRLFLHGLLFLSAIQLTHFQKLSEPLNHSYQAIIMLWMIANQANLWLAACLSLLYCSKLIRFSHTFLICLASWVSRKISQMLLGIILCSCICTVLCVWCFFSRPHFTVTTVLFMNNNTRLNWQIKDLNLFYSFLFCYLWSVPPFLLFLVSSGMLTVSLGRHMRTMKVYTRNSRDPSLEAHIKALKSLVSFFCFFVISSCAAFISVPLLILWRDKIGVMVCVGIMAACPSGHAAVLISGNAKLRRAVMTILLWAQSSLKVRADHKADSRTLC
# Procedure: (§1) A panel of cell lines expressing eight specific bitter taste receptors, a subset of the panel of twenty-five bitter receptors described in International Patent Application Publication WO 2010/088633 (see, e.g., Example 26), was used for the purpose of these analyses. Accordingly, each cell line of the panel expressed a human bitter taste receptor and mouse Gα15 signaling protein.
# (§2) Each of the Examples below utilized the following functional assay: • Day 1: Stable cell lines were seeded onto black wall/clear bottom 96-well, plates (e.g., Corning, 3904). Approximately 40K cells were added per well and incubated at 37° C., 5% CO2 overnight in cell growth media (DMEM (Sigma, D5796) supplemented with 10% Fetal Bovine Serum (Sigma, 5178), 2 mM Glutamine (Sigma, G7513)). • Day 2: Growth media was discarded and cells were incubated at 37° C., 5% CO2 for 60 minutes in 100 ul of load solution containing 1× Ca-3 dye (Molecular Devices, R8090), 1% DMSO in buffer containing 130 mM NaCl, 2 mM CaCl2, 5 mM KCl, 1.2 mM MgCl2, 10 mM HEPES and 10 mM Glucose (pH 7.0). Probenecid was not included in the load solution. • Functional assay: After dye loading, cell plates were placed in a fluorescent plate reader (e.g., FDSS6000 (Hamamatsu, Japan)) and receptor stimulation was measured by adding 50 ul of 3× concentrated ligand/agonist stock. Fluorescence was monitored continuously for 10 s before agonist addition and for 100-250 s after stimulation with agonist.
# (§3) Receptor Activation is defined as follows: • % Activation=[((Maximum signal fluorescence−Minimum signal fluorescence)−(Maximum control fluorescence−Minimum control fluorescence))/(Maximum buffer fluorescence−Minimum buffer fluorescence)]*100 • Functional Response=[(Maximum signal fluorescence−Minimum signal fluorescence)−(Maximum control fluorescence−Minimum control fluorescence)] • Signal fluorescence: refers to the change in fluorescence seen with addition of ligand • Control fluorescence: refers to the change in fluorescence seen with addition of buffer (negative control) • Calcium signals from ligand and control were normalized to the basal fluorescence of the cells prior to the stimulation.
# (§4) A concentration analysis was performed and EC50 values were calculated by nonlinear regression using the formula: Y=Bottom+(Top−Bottom)/(1+10^((Log EC50−X)*Hill Slope)), X=log of dose or concentration, Y=Response (increasing as X increases), Top=maximum signal, Bottom=minimum signal. EC50 (half maximal effective concentration) refers to the molar concentration of the agonist which produces 50% of the maximum possible effective response from that agonist.
# TAS2R13 [2] = target: T3, TAS2R13 (Homo sapiens, UniProt Q9NYV9); conditions: PCT/US12/61400; cited from earlier work
# T3 construct: expressed in transfected cells
# T3 sequence (Q9NYV9 1-303): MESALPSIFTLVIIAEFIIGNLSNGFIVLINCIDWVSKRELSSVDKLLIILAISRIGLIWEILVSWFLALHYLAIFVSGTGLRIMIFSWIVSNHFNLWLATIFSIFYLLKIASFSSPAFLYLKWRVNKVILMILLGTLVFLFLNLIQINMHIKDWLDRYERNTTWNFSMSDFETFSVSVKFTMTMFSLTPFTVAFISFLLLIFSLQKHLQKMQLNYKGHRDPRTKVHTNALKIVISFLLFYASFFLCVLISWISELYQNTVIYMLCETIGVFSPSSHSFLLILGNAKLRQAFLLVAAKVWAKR
# TAS2R4 [3] = target: T4, TAS2R4 (Homo sapiens, UniProt Q9NYW5); conditions: PCT/US12/61400; cited from earlier work
# T4 construct: expressed in transfected cells
# T4 sequence (Q9NYW5 1-299): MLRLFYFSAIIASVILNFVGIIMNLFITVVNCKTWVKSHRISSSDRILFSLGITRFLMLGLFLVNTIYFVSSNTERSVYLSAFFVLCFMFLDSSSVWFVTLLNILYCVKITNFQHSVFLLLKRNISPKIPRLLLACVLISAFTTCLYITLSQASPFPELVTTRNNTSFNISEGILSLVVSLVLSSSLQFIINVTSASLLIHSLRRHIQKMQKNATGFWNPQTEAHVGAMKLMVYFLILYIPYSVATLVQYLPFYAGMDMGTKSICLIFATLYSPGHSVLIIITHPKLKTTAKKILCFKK
# TAS2R39 = target: T5, TAS2R39 (Homo sapiens, UniProt P59534); test: Calcium fluorescence functional assay, TAS2R39 cell line with mouse Gα15; assay type: cell-based
# T5 construct: expressed in transfected cells
# T5 sequence (P59534 1-338): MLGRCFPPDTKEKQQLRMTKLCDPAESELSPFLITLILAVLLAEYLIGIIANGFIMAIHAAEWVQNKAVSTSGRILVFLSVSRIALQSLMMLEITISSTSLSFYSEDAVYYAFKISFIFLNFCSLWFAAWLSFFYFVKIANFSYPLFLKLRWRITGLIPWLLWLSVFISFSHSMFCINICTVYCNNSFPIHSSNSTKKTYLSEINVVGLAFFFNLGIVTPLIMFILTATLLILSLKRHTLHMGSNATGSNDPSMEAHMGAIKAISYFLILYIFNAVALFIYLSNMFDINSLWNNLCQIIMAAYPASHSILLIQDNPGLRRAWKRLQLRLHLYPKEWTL
# Procedure: as §1, §2, §3, §4
# TAS2R14 [4] = target: T6, TAS2R14 (Homo sapiens, UniProt Q9NYV8); conditions: PCT/US12/61400; cited from earlier work
# T6 construct: expressed in transfected cells
# T6 sequence (Q9NYV8 1-317): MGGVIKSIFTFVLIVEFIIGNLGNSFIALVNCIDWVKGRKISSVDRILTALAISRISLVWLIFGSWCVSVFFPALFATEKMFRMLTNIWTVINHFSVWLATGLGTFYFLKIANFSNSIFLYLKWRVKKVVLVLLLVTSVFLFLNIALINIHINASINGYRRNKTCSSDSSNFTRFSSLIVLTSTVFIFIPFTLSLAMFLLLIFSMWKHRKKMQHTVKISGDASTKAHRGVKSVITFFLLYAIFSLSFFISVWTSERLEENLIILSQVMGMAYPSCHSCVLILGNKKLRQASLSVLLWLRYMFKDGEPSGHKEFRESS
# TAS2R44 [5] = target: T7, TAS2R44 (Homo sapiens, UniProt P59538); conditions: PCT/US12/61400; cited from earlier work
# T7 construct: expressed in transfected cells
# T7 sequence (P59538 1-309): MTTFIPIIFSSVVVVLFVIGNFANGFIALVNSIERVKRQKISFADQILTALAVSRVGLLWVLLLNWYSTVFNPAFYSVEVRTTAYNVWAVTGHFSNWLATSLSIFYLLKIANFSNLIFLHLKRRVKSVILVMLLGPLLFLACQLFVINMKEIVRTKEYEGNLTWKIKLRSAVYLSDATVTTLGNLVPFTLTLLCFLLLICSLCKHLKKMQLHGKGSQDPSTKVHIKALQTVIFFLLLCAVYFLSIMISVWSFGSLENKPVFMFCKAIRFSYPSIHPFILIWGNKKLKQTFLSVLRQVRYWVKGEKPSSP
# TAS2R9 [6] = target: T1, TAS2R9; test: Calcium fluorescence functional assay, TAS2R9 cell line with mouse Gα15; assay type: cell-based; conditions: 20 mM tastant; change in intracellular calcium
# Procedure: as §1, §2, §3, §4
# TAS2R44 [7] = target: T7, TAS2R44; test: Calcium fluorescence functional assay, TAS2R44 cell line with mouse Gα15; assay type: cell-based; conditions: 20 mM tastant; change in intracellular calcium
# Procedure: as §1, §2, §3, §4
# TAS2R13 [8] = target: T3, TAS2R13; test: Calcium fluorescence functional assay, TAS2R13 cell line with mouse Gα15; assay type: cell-based; conditions: 20 mM tastant; change in intracellular calcium
# Procedure: as §1, §2, §3, §4
# TAS2R14 [9] = target: T6, TAS2R14; test: Calcium fluorescence functional assay, TAS2R14 cell line with mouse Gα15; assay type: cell-based; conditions: 20 mM tastant; change in intracellular calcium
# Procedure: as §1, §2, §3, §4
# TAS2R4 [10] = target: T4, TAS2R4; test: Calcium fluorescence functional assay, TAS2R4 cell line with mouse Gα15; assay type: cell-based; conditions: 20 mM tastant; change in intracellular calcium
# Procedure: as §1, §2, §3, §4
# [11] = 20 mM tastant, change in intracellular calcium
# [12] = approximately, increasing concentrations of tastant
# Sequence of TAS2R1 (Q9NYW7 whole entry): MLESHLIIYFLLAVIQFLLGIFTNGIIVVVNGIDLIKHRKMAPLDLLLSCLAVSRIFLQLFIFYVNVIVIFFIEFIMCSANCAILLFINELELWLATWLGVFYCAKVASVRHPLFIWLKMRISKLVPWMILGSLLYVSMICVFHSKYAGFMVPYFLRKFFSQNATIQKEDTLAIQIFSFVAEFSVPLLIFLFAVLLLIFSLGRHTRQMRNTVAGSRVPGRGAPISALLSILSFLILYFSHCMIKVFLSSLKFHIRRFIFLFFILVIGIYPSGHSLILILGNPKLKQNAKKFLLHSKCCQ
# Sequence of TAS2R16 (Q9NYV7 whole entry): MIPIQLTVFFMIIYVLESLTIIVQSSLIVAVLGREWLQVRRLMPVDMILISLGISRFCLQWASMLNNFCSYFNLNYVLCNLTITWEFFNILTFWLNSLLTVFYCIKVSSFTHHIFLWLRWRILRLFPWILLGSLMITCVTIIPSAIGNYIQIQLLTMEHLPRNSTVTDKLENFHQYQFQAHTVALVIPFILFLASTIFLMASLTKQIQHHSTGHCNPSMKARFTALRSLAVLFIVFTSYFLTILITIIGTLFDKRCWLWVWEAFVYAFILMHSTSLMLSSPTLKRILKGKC
TAS2R38 (PAV) bitter receptor activity (functional response) (TAS2R38 (PAV); [11]),EC50 (TAS2R38 (PAV); [12]),TAS2R39 bitter receptor activity (functional response) (TAS2R39; [11]),EC50 (TAS2R39; [12]),SMILES,"TAS2R16 response to stimulation, previously shown (TAS2R16)","TAS2R1 response to stimulation, previously shown (TAS2R1)","TAS2R9 response to stimulation, previously shown (TAS2R9 [1])","TAS2R13 response to stimulation, previously shown (TAS2R13 [2])","TAS2R4 response to stimulation, previously shown (TAS2R4 [3])","TAS2R14 response to stimulation, previously shown (TAS2R14 [4])","TAS2R44 response to stimulation, previously shown (TAS2R44 [5])",TAS2R9 bitter receptor activity (functional response) (TAS2R9 [6]),TAS2R44 bitter receptor activity (functional response) (TAS2R44 [7]),TAS2R13 bitter receptor activity (functional response) (TAS2R13 [8]),TAS2R14 bitter receptor activity (functional response) (TAS2R14 [9]),TAS2R4 bitter receptor activity (functional response) (TAS2R4 [10])
strongly and specifically responded,5 to 10 mM,strongly and specifically responded,5 to 10 mM,CC1=CC(=O)NS(=O)(=O)O1 [Acesulfame K],specifically respond,specifically respond,specifically respond,specifically respond,specifically respond,specifically respond,specifically respond,–,–,–,–,–
–,–,–,–,CC(O)C(=O)[O-].[K+] (stereo not shown) [potassium lactate],–,–,–,–,–,–,–,activate,activate,activate,activate,activate

# Source: patent US9927424B2, “Assays for identifying compounds that modulate bitter taste” (Chromocell Corporation, priority 2013, dated 2018)
